The values below come from patent US8591877B2, “Cellulose-based nanoparticles for drug delivery” (Ontario Institute for Cancer Research, priority 2011, dated 2013).

Data set [1] deals with PAN02 cells (murine pancreatic cancer). Nature of the data set: Intraperitoneal tumor model study, PAN02. The class given is in vivo, C57/BL6 mice. The settings on record: PAN02 i.p. model. An excerpt:
(§1) Female BALB/c and C57/BL6 mice (aged 6 weeks, 18-20 g) were purchased from The Jackson Laboratory (Bar Harbor, Me.). All experimental protocols in this study were approved by the Animal Care Committee of the University Health Network (Toronto, Ontario, Canada) in accordance with the policies established in the Guide to the Care and Use of Experimental Animals prepared by the Canadian Council of Animal Care. For each study, the DTX was formulated in a Tween80/ethanol/saline (20:13:67) solution (4 mg DTX/mL), and sterile filtered. The Cellax particles were adjusted to 4, 7.5 or 15 mg DTX/mL in saline and sterile filtered.
PAN02 cells (murine pancreatic cancer) were cultured in RPMI 1640 supplemented with 10% FBS (Invitrogen), penicillin (100 U/ml) and streptomycin (100 μg/ml) (Invitrogen), and pyruvate (1 mM). Prior to inoculation, the cells were lifted from the culture plates with TrypLE Express (Invitrogen), and re-suspended in supplement free (no FBS, no antibiotics) RPMI media. The PAN02 cells (5×10^6 cells/mL, 0.5 mL) were injected into the intraperitoneal space of C57/BL6 mice. One day post-administration of the cells, the mice (n=3 per group) were treated with DTX (40 mg/kg), Cellax (40 mg DTX eqv/kg), or saline. Mice were sacrificed when >20% body weight loss was recorded, or at the first signs of behavioral or mobility dysfunction.

Data set [2] has as its system EMT-6 murine mammary carcinoma cells. Nature of the data set: In vitro cytotoxicity (IC50 analysis), XTT assay. The data set is classed as cell-based. The settings on record: Mus musculus, EMT-6 (mammary). How it is done:
(§2) EMT-6 murine mammary carcinoma cells and LL/2 murine Lewis lung cell carcinoma cells were cultured in DMEM media (Invitrogen) with high glucose, supplemented with 10% FBS (Invitrogen), penicillin (100 U/ml) and streptomycin (100 μg/ml) (Invitrogen). The mouse mammary carcinoma cell line EMT-6 was a generous gift from Dr. David Stojdl at the CHEO Research Institute and Dr. Douglas Mahoney at the University of Ottawa. For plating, cells were released from the culture flask with trypsin (Invitrogen), resuspended at a concentration of 1×10^5 cell/mL, and 100 uL of cell suspension was added to the wells of 96 well polystyrene plate. The cells were maintained for 24 hours in culture (37° C., 5% CO2, humidified) before addition of particles. DTX solutions were made up in DMSO and diluted with media to form a 100 nM stock solution with 0.1% DMSO content. These DTX samples were 2× serially diluted with 0.1% DMSO media. Cellax particles were assayed for DTX content, and 10× serially diluted with media. The cultures were maintained for three days, at which time cell viability was assayed by the XTT assay. Briefly, a 1 mg/mL solution of XTT reagent (Sigma) in water was prepared, and phenazine (Sigma) was added just before analysis ([…]). The culture plates were incubated for two hours at 37° C., and absorbance of each well at 480 nm was then read. Wells treated with media (or 0.1% DMSO media) represent 100% viable cultures, and wells containing no cells represent background signal. In a parallel experiment, the DTX or Cellax-containing media were added to the EMT-6 and LL/2 cultures in four steps, with addition of ¼ the dose every 12 hours for two days. The data was analyzed in GraphPad Prism, and the IC50 for each system was calculated.
On the technique in general: Tetrazolium dyes change colour on reduction, which living cells bring about.

Data set [3] relates to LL/2 murine Lewis lung cell carcinoma cells. Briefly: In vitro cytotoxicity (IC50 analysis), XTT assay. The settings on record: Mus musculus, LL/2 (lung). The class given is cell-based. The protocol:
as §2

For data set [4], the system named is LL/2 flank tumors. Nature of the data set: Subcutaneous flank tumor study, LL/2. The data set is classed as in vivo.
Data set [5] has as its system EMT-6 cells (i.v. inoculated). Briefly: Metastatic tumor study, i.v. EMT-6 cells. The class given is in vivo, BALB/c mice.
Text: as §1
Healthy BALB/c mice received an i.v. dose of EMT-6 cells (in supplement free DMEM media) via tail vein injection (50 uL, 2.5×10^5 cell/mL), and one day following received a dose of Cellax (40 mg DTX/kg), 40 mg/kg DTX, or saline (n=10/group). A second dose (20 mg/kg DTX) was administered on day 7 post-cell injection. Mice were sacrificed when >20% body weight loss was recorded, or at the first signs of behavioral or mobility dysfunction. The lungs, heart, liver, kidneys, spleen, femurs, and brain were harvested for histological analysis. A Kaplan Meier plot of survival probability was generated from the survival data.

A short description of data set [6]: Maximum tolerated dose (MTD) study in healthy mice. The settings on record: female, BALB/c, mouse, in vivo, iv; single i.v. dose, limit <5% body weight loss; read-out: MTD for docetaxel in mice.
Text: as §1
Tissues from mice (organs, bones, and tumors) were rinsed with saline and fixed in 10% formalin for 2 days, followed by storage in 70% ethanol. Preparation of tissues into slides was performed at the Toronto General Hospital Pathology Research Program lab (Toronto, ON). […] Prepared slides were analyzed on an Aperio Scanner at the Advanced Optical Microscopy Facility (AOMF) at the Princess Margaret Hospital (Toronto, ON). […] For TUNEL, Ki67, and CD31 stained samples, brown pixels were counted with the ImageScope Positive Pixel Count algorithm. For each tumor or organ analyzed, three tissue sections were each divided into three equal regions, generating n=9 data points. Image analysis output were positive pixel counts divided by the area analyzed. […]

The subject of data set [7] is EMT-6 flank tumors. Nature of the data set: Subcutaneous flank tumor study, EMT-6. The data set is classed as in vivo.
Text: as §1
Tissues from mice (organs, bones, and tumors) were rinsed with saline and fixed in 10% formalin for 2 days, followed by storage in 70% ethanol. […] Prepared slides were analyzed on an Aperio Scanner at the Advanced Optical Microscopy Facility (AOMF) at the Princess Margaret Hospital (Toronto, ON). […] For TUNEL, Ki67, and CD31 stained samples, brown pixels were counted with the ImageScope Positive Pixel Count algorithm. For each tumor or organ analyzed, three tissue sections were each divided into three equal regions, generating n=9 data points. Image analysis output were positive pixel counts divided by the area analyzed.
EMT-6 cells were cultured as described previously. […] The tumor size was measured by a caliper, and body weight was monitored. […]

For data set [8] the following is noted: doses of 210, 150, 300, and 233 mg/m^2 for PTX, NK105, Genexol, Opaxio respectively; cited from earlier work.

Where two headings read alike, the source gives them in different places.

As for `CC(=O)O[C@@]12CO[C@@H]1C[C@H](O)[C@@]1(C)C(=O)[C@H](O)C3=C(C)[C@@H](OC(=O)[C@H](O)[C@@H](NC(=O)OC(C)(C)C)c4ccccc4)C[C@@](O)([C@@H](OC(=O)c4ccccc4)[C@H]21)C3(C)C` [DTX, Docetaxel], the survival result in data set [1] (40 mg/kg) is given as “survival was significantly extended”. For the same compound, the “weight loss or disease symptoms” value in data set [1] (40 mg/kg (DTX eqv), n=3 per group) is on record as “did not exhibit signs of weight loss or disease symptoms”. Further, the IC50 (as a rule, the concentration that gives 50% inhibition) was 6 nM in data set [2] (EMT6, 48 h, dose in four parts over two days, read-out: IC50 DTX (nM) Metronomic); 80 nM in data set [2] (EMT6, single (bolus) dose, XTT, Cellax as DTX content, read-out: IC50); 12 nM in data set [3] (48 h, dose in four parts over two days, read-out: IC50 DTX (nM) Metronomic); 767 nM in data set [3] (single (bolus) dose, XTT, Cellax as DTX content, read-out: IC50). The “effect on tumor growth” value was “did not alter tumor growth characteristics” in data set [4] (LL/2 flank model, single dose 40 mg/kg DTX (eqv)) and “minor (not significant) effect on tumour growth” in data set [7] (EMT-6 flank model, single dose 40 mg/kg DTX (eqv), Cellax p<0.001 vs controls, p<0.05 vs DTX). The “tumor histology: necrosis (H&E) and TUNEL staining” value in data set [4] (LL/2 tumors) is “positive TUNEL staining was minimal”. This compound also displayed a median survival time in data set [5] (40 mg/kg day 1, 20 mg/kg day 7, n=10/group) of 9 days. In data set [5] (metastatic EMT-6 model, 40 mg/kg), the “onset of weight loss” value worked out at 6 days. For the same compound, the “signs of disease stress: parelsis (leg movements), piloerection” value in data set [5] (metastatic EMT-6 model, mice affected per group of 10) is reported as 4/10. In addition, the MTD (in general, the highest dose tested that stayed within the study's limit of toxicity) at 7 days in data set [6] was 40 mg/kg. Besides, in data set [7] (EMT-6 tumors, 40 mg/kg, compared to DTX treated tumors and controls), the “tumor histology: apoptosis (TUNEL), cell replication (Ki67), angiogenesis (CD31)” value is listed as “caused necrosis/apoptosis”.

For `CC(=O)O[C@H]1C(=O)[C@@]2(C)[C@H]([C@H](OC(=O)c3ccccc3)[C@]3(O)C[C@H](OC(=O)[C@H](O)[C@@H](NC(=O)c4ccccc4)c4ccccc4)C(C)=C1C3(C)C)[C@]1(OC(C)=O)CO[C@@H]1C[C@@H]2O` [PTX, paclitaxel], the half life in data set [8] was 13.3 h.

For the compound `Nc1ccn([C@@H]2O[C@H](CO)[C@@H](O)C2(F)F)c(=O)n1` [gemcitabine], the benefit of treatment entry in data set [1] (120 mg/kg) was “did not confer significantly increased benefits”.
